This is an account of results in patent publication US20230346827A1 (priority 2020, published 2023).

The Hill coefficient is the slope factor of the fitted curve. Broadly, the IC50 is the concentration at which inhibition is half-maximal. Read a high IC50 as weaker potency in that assay.

Data set [1] addresses T1, oligomeric amyloid-β / PrP^c interaction (Homo sapiens, UniProt P04156). It is filed as binding.
For data set [2] the following is noted: in vivo; cited from earlier work.
Data set [3] relates to mouse model of muscle atrophy. The conditions noted are these: after 2 weeks of treatment; cited from earlier work.
For the next data set, the system named is human purified monocytes. The data set is described as follows: Stimulated IL-6 release from human purified monocytes (ELISA). It is filed as cell-based. The following applies: 24 h, LMW-DS 60-600 µg/ml, heparin 2.0-20 µg/ml, dexamethasone 3.0 µM. As for the experimental part:
Peripheral blood mononuclear cells (PBMC) were isolated from healthy donors through Ficoll-Paque PLUS (GE Healthcare; 11778538) density centrifugation. Monocytes were purified using the EasySep™ human monocyte enrichment kit (StemCell) that purifies monocytes ‘untouched’ to maintain their phenotype.
Monocytes were cultured in the absence (unstimulated PBS vehicle controls) or presence of stimulation (LPS or peptidoglycan) in the absence (vehicle) or presence of LMW-DS (Tikomed AB, Viken, Sweden, WO 2016/076780; three concentrations; top concentration 600 µg/ml, 200 µg/ml and 60 µg/ml), heparin (2.0, 6.0 or 20 µg/ml; equivalent to 0.406, 1.218 and 4.06 units/ml; Sigma Aldrich) or dexamethasone (3.0 µM; Sigma Aldrich) for 24 hours at 37° C., 5% CO2. Following centrifugation, cell culture supernatants were removed and stored at -20° C. awaiting analysis for IL-6 by ELISA. Levels of IL-6 were quantified in the supernatant by ELISA (R&D systems) according to manufacturer’s instructions.
(ELISA stands for enzyme-linked immunosorbent assay.)

The target in data set [4] is T1, oligomeric amyloid-β / PrP^c interaction. The following applies: cited from earlier work.

As for dextran, the “competition for the protein-protein interaction between oligomeric amyloid-β and PrP^c” value in data set [1] was “failed to compete appreciably”.

On to adalimumab, for which the half-life entry in data set [2] was “around 14 days”. Consider “recombinant HGF: recombinant hepatocyte growth factor”, for which the “increase in muscle mass” value in data set [3] was 18%. Regarding infliximab, the half-life entry in data set [2] is listed as “around 14 days”. Take certolizumab: in data set [2], the half-life entry is reported as “around 14 days”. As for heparin [reference compound], the “LPS-stimulated IL-6 release” value in the data set on human purified monocytes (LPS 0.01 ng/ml) was “concentration dependent statistically significant enhancement”. For the same substance, the “peptidoglycan-stimulated IL-6 release” value with human purified monocytes (peptidoglycan 30 ng/ml) is on record as “did not reach statistical significance”. As for dextran sulphate sodium salt [DSSS], in data set [1], the “Competable binding (%)” value is 101±2%, the Hill coefficient is on record as 1.51±0.06 and the “IC50” value was determined as 0.62 ± 0.07 µg/mL. The “effective concentrations to compete with the amyloid-β / PrP^c interaction” value in data set [4] is reported as “low µg/ml range”.
